Results: patent publication US4857549A, “Antitumor compounds” (priority 1988, dated 1989)
Where “and” joins values, the source holds several entries; their conditions need not be identical. Equal values may be shown once. Read-outs that look alike come from different tables or passages of the source.

Columns and labels:
[1] = tested on: B16 melanoma cells (highly metastatic subline, F10); experiment: B16 melanoma in vitro cloning (colony forming) assay, 2 hour exposure; format: cell-based; conditions: read-out: IC50: concentration which inhibits cloning efficiency of B16 melanoma cells by 50%
Procedure: Initially, the cytotoxic activity of the Formula (I) and Formula (IA) compounds used in the pharmaceutical compositions and methods of treatment of the instant invention was evaluated in vitro using B16 melanoma cells according to the following assay:
B16 melanoma (highly metastatic subline, F10) are used and maintained as monolayer cultures in Minimal Essential Media (Grand Island Biological Co., Grand Island, N.Y. ) supplemented with 10% calf serum, 1% antibiotics in a 5% CO2 humidified incubator at 37° C. Asynchronous populations of cells are harvested and replated to 5000 cells/plate in sterile 60 mm×15 mm petri plates. Plates are incubated overnight to allow attachment of the cells to the plate. Cells are treated with a Formula (I) or Formula (IA) compound or cisplatin under sterile conditions, allowed to react for 2 hours followed by aspiration of medium. Plates are washed one time with 5 ml of phosphate buffered saline (PBS), followed by the addition of 5 ml of fresh media. Plates are incubated for 5 days at 37° in a CO2 incubator. Viability is measured by the ability of a cell to form a colony of greater than 50 cells. Colonies are fixed with 0.5% crystal violet in 95% ethanol. Plates are dried and counted with a Biotran III Automatic Count Totalizer (New Brunswick Scientific Co., Edison, N.J.). Mean and standard deviation of triplicate samples are determined for each drug concentration. The data are analyzed by plotting the log of the survival fraction (number of colonies in drug treated plates/number of colonies in controls) versus the drug concentration.
^(a) concentration which inhibits cloning efficiency of B16 melanoma
cells by 50% on a 2hour exposure.

[2] = tested on: P388 leukemia
[3] = tested on: M5076 reticulum cell sarcoma; experiment: ip M5076 reticulum cell sarcoma assay in mice; conditions: for MTD (maximally tolerated dose): B6D2F1 female mice; for MTD (maximally tolerated dose) / ILS max (maximum increase in lifespan): ip qD × 10; for ILS max (maximum increase in lifespan): ip M5076 sarcoma mice, slash = separate experiments; for activity in the ip M5076 reticulum cell sarcoma assay: in words, based on Tables C and D
Procedure: (§1) Another chemosensitive tumor model is intraperitoneally (ip) implanted M5076 reticulum cell sarcoma in mice. In this system B6D2F1 female mice are inoculated with 0.5 ml of a 10 percent weight:volume (w:v) brei of M5076 prepared from pooled subcutaneous (sc) tumors excised at about 21 days from c57B1/6 donor mice. Drugs are administered ip. Daily treatment is begun 24 hours after implantation and is continued for ten days. The treatment regimen for M5076 is more prolonged than for P388 because of the slower growth rate and longer control survival time of the M5076 tumor.

[4] = tested on: B16 melanoma; experiment: in vivo ip B16 melanoma assay; conditions: Table E, ip qD × 10
Procedure: The cytotoxic activity of several compounds of Formula (I) was evaluated in vivo using B16 melanoma cells according to the following assay:
In this system, groups of eight B6D2F1 mice are inoculated ip with 0.5 ml of a 10% (w:v) brei of B16 melanoma prepared from pooled sc tumors excised at 14.noteq.21 days from C67B1 /6 donor mice. Daily treatment is begun 24 hours after tumor implantation and is continued daily for 10 days. The route of drug administration is ip. The mice are monitored daily for survival for 60 days. Antitumor activity is assessed by prolongation of median survival time.

[5] = tested on: mammary adenocarcinoma 16/c; experiment: sc mammary adenocarcinoma 16/c assay
Procedure: The mammary adenocarcinoma 16/c tumor is implanted sc in C3H mice, and the Formula (I) compound is administered ip on days 1, 5, 9, 13 and 17. Tumors are measured 3 weeks after implantation, and activity is assessed by degree of tumor growth inhibition.

[6] = ip M5076 reticulum cell sarcoma assay in mice; conditions: mouse, in vivo, ip
Procedure: as §1

[7] = in vivo; conditions: mouse, ip
[8] = tested on: ADJ-PC6 Plasmacytoma; experiment: ADJ-PC6 plasmacytoma assay; conditions: in words
Procedure: Tumor cells are carried by serial sc passage in BALB/c female mice and then collected aseptically on ca. Day 21 and minced in Hank's balanced salt solution. The cells are then dispersed by homogenization in a loose-fitting teflon glass homogenizer, and cell concentration is adjusted to 4×10^6 viable ([…]) cells per ml by hemocytometer counts. A total of 0.5 ml (2×10^6 cells) is implanted sc on the right flank of BALB/c female mice in groups of 8. Treatment is given ip on Days 1-10, and tumors are measured in perpendicular diameters with a vernier caliper on Day 18.
^(b) maximally tolerated dose for BALB/c female mice on an ip qD

[9] = Table B, B6D2F1 female mice, ip qD × 5
[10] = Table B, ip P388 leukemia mice, ip days 1-5, slash-separated figures are separate experiments, compound 2: 35 experiments
[11] = Table C, compound 2: seven experiments
[12] = Mus musculus, B16, Table AI, Formula (IA)

Compound: [Cl][Au][PH](C[PH]([Au][Cl])(c1ccccc1)c1ccccc1)(c1ccccc1)c1ccccc1 [Compound 1, μ-[1,3-Bis(Diphenylphosphino)Methane]Bis[Chlorogold(I)]]
- IC50 ([1]; Table A, Formula (I)): 6 µM
- MTD (maximally tolerated dose) [2, 9]: 50 mg/kg
- ILS (maximum increase in lifespan) [2, 10]: 62% and 50%

Compound: [Cl][Au][PH](CCC[PH]([Au][Cl])(c1ccccc1)c1ccccc1)(c1ccccc1)c1ccccc1 [Compound 3, μ-[1,3-Bis(Diphenylphosphino)Propane]Bis[Chlorogold(I)]]
- IC50 ([1]; Table A, Formula (I)): 2 µM
- MTD (maximally tolerated dose) ([3]; Table C): 5 mg/kg
- ILS max (maximum increase in lifespan) [3, 11]: 69%
- activity in the ip M5076 reticulum cell sarcoma assay [3]: good activity
- MTD (maximally tolerated dose) [2, 9]: 8 mg/kg

Compound: [Cl][Au][PH](CCCC[PH]([Au][Cl])(c1ccccc1)c1ccccc1)(c1ccccc1)c1ccccc1 [Compound 4, μ-[1,4-Bis(Diphenylphosphino)Butane]Bis[Chlorogold(I)]]
- IC50 ([1]; Table A, Formula (I)): 3 µM
- ILS (maximum increase in lifespan) [2, 10]: 45% and 40%
- MTD (maximally tolerated dose) ([2]; mouse, in vivo, ip): 6 mg/kg

Compound: [Cl][Au-][P+](CCCCC[P+]([Au-][Cl])(c1ccccc1)c1ccccc1)(c1ccccc1)c1ccccc1 [Compound 5, μ-[1,5-Bis(Diphenylphospinio)Pentane]Bis[Chlorogold(I)]]
- IC50 ([1]; Table A, Formula (I)): 2 µM
- MTD (maximally tolerated dose) [2, 9]: 4 mg/kg
- ILS (maximum increase in lifespan) [2, 10]: 55%

Compound: [Cl][Au-][P+](CCCCCC[P+]([Au-][Cl])(c1ccccc1)c1ccccc1)(c1ccccc1)c1ccccc1 [Compound 6, μ-[1,6-Bis(Diphenylphosphino)Hexane]Bis[Chlorogold(I)]]
- IC50 ([1]; Table A, Formula (I)): 2 µM
- ILS (maximum increase in lifespan) ([2]; mouse, in vivo, ip): 40% and 35%
- MTD (maximally tolerated dose) ([2]; mouse, in vivo, ip): 4 mg/kg

Compound: [Cl][Au][PH](C=C[PH]([Au][Cl])(c1ccccc1)c1ccccc1)(c1ccccc1)c1ccccc1 [Compound 7, μ-[Cis-1,2-Bis(Diphenylphosphino)Ethylene]Bis[Chlorogold(I)]]
- IC50 ([1]; Table A, Formula (I)): 7 µM
- MTD (maximally tolerated dose) ([3]; Table C): 3 mg/kg
- ILS max (maximum increase in lifespan) [3, 11]: 90%
- activity in the ip M5076 reticulum cell sarcoma assay [3]: good activity
- MTD (maximally tolerated dose) [2, 9]: 4 mg/kg
- ILS (maximum increase in lifespan) [2, 10]: 105% and 77%

Compound: [Cl][Au]([Cl])([Cl])[PH](CC[PH](c1ccccc1)(c1ccccc1)[Au]([Cl])([Cl])[Cl])(c1ccccc1)c1ccccc1 [Compound 12, μ-[1,2-Bis(Diphenylphosphino)Ethane]Bis[Trichlorogold(III)]]
- IC50 ([1]; Table A, Formula (I)): 4 µM
- MTD (maximally tolerated dose) ([3]; Table C): 8 mg/kg
- ILS max (maximum increase in lifespan) [3, 11]: 74%
- MTD (maximally tolerated dose) [2, 9]: 16 mg/kg
- ILS (maximum increase in lifespan) [2, 10]: 95% and 62%

Compound: [Br][Au][PH](CC[PH]([Au][Br])(c1ccccc1)c1ccccc1)(c1ccccc1)c1ccccc1 [Compound 15]
- ILS max (maximum increase in lifespan) [3, 11]: 69%
- ILS (maximum increase in lifespan) [2, 10]: 116% and 80%
- MTD (maximally tolerated dose) ([4]; B6D2F1 mice): 13 um/kg
- ILS (maximum increase in lifespan) ([4]; ip B16 melanoma mice, slash = separate experiments): 49% and 41%
- MTD (maximally tolerated dose) ([5]; Table F, C3H mice, intermittent ip regimen): 26 um/kg
- Inhibition (tumor growth inhibition) ([5]; Table F, sc tumor, ip days 1, 5, 9, 13, 17, slash = separate experiments): 79%

Compound: [Cl][Au][PH](CC[PH]([Au][Cl])(C1CCCCC1)C1CCCCC1)(C1CCCCC1)C1CCCCC1 [Compound 22, μ-[1,2-Bis(Dicyclohexylphosphino)Ethane]Bis[Chlorogold(I)]]
- IC50 ([1]; Table A, Formula (I)): 14 µM
- MTD (maximally tolerated dose) ([3]; Table C): 8 mg/kg
- ILS max (maximum increase in lifespan) [3, 11]: 27%
- MTD (maximally tolerated dose) [2, 9]: 16 mg/kg

Compound: C(=C/P(c1ccccc1)c1ccccc1)/P(c1ccccc1)c1ccccc1 [Compound 34, cis-bis(1,2-diphenylphosphino)ethylene]
- IC50 [1, 12]: 25 µM
- MTD [6]: 5 mg/kg
- ILS max (maximum increase in lifespan) ([3]; Table D): 57%
- activity in the ip M5076 reticulum cell sarcoma assay [3]: good activity
- MTD [7]: 24 mg/kg

Compound: CC(CP(c1ccccc1)c1ccccc1)P(c1ccccc1)c1ccccc1 (stereo not shown) [Compound 35, Bis(1,2-diphenylphosphino)propane]
- IC50 [1, 12]: 50 µM
- MTD (maximally tolerated dose) ([3]; Table D): 24 mg/kg
- ILS max (maximum increase in lifespan) ([3]; Table D): 62%
- MTD [7]: 32 mg/kg

Compound: C[C@H](CP(c1ccccc1)c1ccccc1)P(c1ccccc1)c1ccccc1 [Compound 36, R-(+)-bis(1,2-diphenylphosphino)propane]
- IC50 [1, 12]: 50 µM
- MTD [7]: 32 mg/kg

Compound: c1ccc(P(CCCP(c2ccccc2)c2ccccc2)c2ccccc2)cc1 [Compound 37, bis(1,3-diphenylphosphino)propane]
- IC50 [1, 12]: 72 µM
- MTD [7]: 32 mg/kg

Compound: c1ccc(P(c2ccccc2)c2ccccc2P(c2ccccc2)c2ccccc2)cc1 [Compound 40, Bis(1,2-Diphenylphosphino)Benzene]
- IC50 [1, 12]: 28 µM
- MTD [7]: 32 mg/kg

Compound: [2H]c1c([2H])c([2H])c(P(CCP(c2c([2H])c([2H])c([2H])c([2H])c2[2H])c2c([2H])c([2H])c([2H])c([2H])c2[2H])c2c([2H])c([2H])c([2H])c([2H])c2[2H])c([2H])c1[2H] [Compound 43, 1,2-Ethanediyl-bis[di(phenyl-d5)phosphine]]
- IC50 [1, 12]: 50 µM
- MTD [7]: 24 mg/kg

Compound: N.N.[Cl][Pt][Cl] [cisplatin, reference compound]
- activity of positive control in ip M5076 ([3]; all experiments, active = average ≥25 percent ILS): active in all experiments
- tumor growth inhibition by positive control [8]: complete tumor growth inhibition
- inhibition of growth of mammary adenocarcinoma 16/c by positive control ([5]; in words, generally produced): complete inhibition
